{
  "source": "paper PMC10208570",
  "about": "“Peptidomimetic antibiotics disrupt the lipopolysaccharide transport bridge of drug-resistant Enterobacteriaceae” (Science Advances, 2023)",
  "key": {"mLptA [1]": {"target": "mLptA", "settings": "read-out: Kd ± 95CI, K. pneumoniae mLptA; FP direct binding of 6-FL; triplicates; ± 95% CI of fit", "procedure": "(§1) Protein stocks were purified and concentrated in buffer 1 [50 mM Na-Pi (pH 7) and 150 mM NaCl] and, if necessary, diluted to desired concentrations using buffer 2 [50 mM Na-Pi (pH 7), 150 mM NaCl, and 0.05% Tween 20]. Peptide stocks and fluorescently labeled peptide stocks were made in buffer 2. Every serial dilution consisted of 24 wells, the first well with the highest concentrate and the last well (well 24) with the lowest. First, 50 μl of buffer 2 was added to the wells 2 to 24 of each serial dilution. Then, 100 μl of concentrated unlabeled peptide/protein in their respective buffers was added to the first well. Fifty microliters were taken from the first well and added to the second well for a 1:1 serial dilution and continued for the 24 wells. […] Plates were covered with adhesive seals and left to incubate overnight at 4°C before FP measurements the next day. Anisotropy was measured using the Tecan Safire2 plate reader using a 10-nm bandwidth and setting the excitation and emission wavelengths to 635 and 670 nm, respectively. The G-factor (G) was also determined empirically as 1.094 for the instrument and included in all the anisotropy calculations.\n(§2) For direct binding assays, fluorescence anisotropy (r) was calculated using the parallel and perpendicular polarized intensities (I) by the equation r=I∥−I⊥∗G/I∥+2I⊥∗G\n(§3) Anisotropy for the blank, the fluorescently labeled peptide only (6-FL only), was measured and subtracted from r to yield r′. The r′ data were normalized and fit to the One site − Total model on GraphPad Prism 9. A nonspecific binding factor (NS) was determined using a linear regression model (y = NS ∗ X + b) at the highest concentrations and incorporated into the fit."}, "LptAm [2]": {"target": "LptAm", "settings": "read-out: Kd ± 95CI, K. pneumoniae LptAm; FP direct binding of 6-FL; triplicates; ± 95% CI of fit", "procedure": "as §1, §2, §3"}, "LptAmQ62L [3]": {"target": "LptAmQ62L", "settings": "read-out: Kd ± 95CI, K. pneumoniae LptAmQ62L; FP direct binding of 6-FL; triplicates; ± 95% CI of fit", "procedure": "as §1, §2, §3"}, "LptAmQ62L [4]": {"target": "T1, LptAmQ62L (Escherichia coli, UniProt P0ADV1, Q62L)", "T1 construct": "His6-GB1 (N, cleaved yes); made in house; host or cells: E. coli BL21 (DE3)", "T1 sequence (P0ADV1 28-159 Q62L)": "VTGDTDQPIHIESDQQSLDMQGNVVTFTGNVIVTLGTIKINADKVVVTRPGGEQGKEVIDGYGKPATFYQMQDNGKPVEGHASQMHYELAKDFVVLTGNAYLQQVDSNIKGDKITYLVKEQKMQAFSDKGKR", "assay": "FP direct binding assay", "parameters": "species or system E. coli", "protocol": "(§6) Anisotropy for the blank, the fluorescently labeled peptide only (6-FL only), was measured and subtracted from r to yield r′. The r′ data were normalized and fit to the One site − Total model on GraphPad Prism 9. A nonspecific binding factor (NS) was determined using a linear regression model (y = NS ∗ X + b) at the highest concentrations and incorporated into the fit. The dissociation constants (Kd) were calculated using the total protein concentrations using the equation y=Bmax∗X/Kd+X"}, "LptAm [5]": {"target": "T2, LptAm (Escherichia coli, UniProt P0ADV1)", "T2 construct": "His6-GB1 (N, cleaved yes); made in house; host or cells: E. coli BL21 (DE3)", "T2 sequence (P0ADV1 28-159)": "as the sequence (P0ADV1 28-159 Q62L) above, with L35Q counted along it", "assay": "FP direct binding assay", "parameters": "species or system E. coli", "protocol": "as §6"}, "LptAmD33A": {"target": "T3, LptAmD33A (Escherichia coli, UniProt P0ADV1, D33A)", "T3 construct": "His6-GB1 (N, cleaved yes); made in house; host or cells: E. coli BL21 (DE3)", "T3 sequence (P0ADV1 28-159 D33A)": "as the sequence (P0ADV1 28-159 Q62L) above, with D6A, L35Q counted along it", "assay": "FP direct binding assay", "parameters": "species or system E. coli", "protocol": "as §6"}, "mLptA [6]": {"target": "T4, mLptA (Escherichia coli, UniProt P0ADV1, E39V/M47A/R76A)", "T4 construct": "the LptA25–185 mutant E39V M47A R76A was selected as the best candidate; His6-GB1 (N, cleaved yes); made in house; host or cells: E. coli BL21 (DE3)", "T4 sequence (P0ADV1 25-185 E39V/M47A/R76A)": "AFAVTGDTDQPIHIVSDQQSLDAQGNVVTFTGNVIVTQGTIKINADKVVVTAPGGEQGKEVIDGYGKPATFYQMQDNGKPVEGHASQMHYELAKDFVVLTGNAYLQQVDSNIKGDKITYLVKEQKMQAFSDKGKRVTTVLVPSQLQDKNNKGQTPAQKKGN", "assay": "biochemical", "format": "binding, E. coli", "procedure": "(§4) Protein stocks were purified and concentrated in buffer 1 [50 mM Na-Pi (pH 7) and 150 mM NaCl] and, if necessary, diluted to desired concentrations using buffer 2 [50 mM Na-Pi (pH 7), 150 mM NaCl, and 0.05% Tween 20]. Peptide stocks and fluorescently labeled peptide stocks were made in buffer 2. Every serial dilution consisted of 24 wells, the first well with the highest concentrate and the last well (well 24) with the lowest. First, 50 μl of buffer 2 was added to the wells 2 to 24 of each serial dilution. Then, 100 μl of concentrated unlabeled peptide/protein in their respective buffers was added to the first well. […] Anisotropy was measured using the Tecan Safire2 plate reader using a 10-nm bandwidth and setting the excitation and emission wavelengths to 635 and 670 nm, respectively. The G-factor (G) was also determined empirically as 1.094 for the instrument and included in all the anisotropy calculations.\nas §2\n(§5) Anisotropy for the blank, the fluorescently labeled peptide only (6-FL only), was measured and subtracted from r to yield r′. […] A nonspecific binding factor (NS) was determined using a linear regression model (y = NS ∗ X + b) at the highest concentrations and incorporated into the fit."}, "mLptAQ62L": {"target": "T5, mLptAQ62L (Escherichia coli, UniProt P0ADV1, E39V/M47A/Q62L/R76A)", "T5 construct": "the LptA25–185 mutant E39V M47A R76A was selected as the best candidate; His6-GB1 (N, cleaved yes); made in house; host or cells: E. coli BL21 (DE3)", "T5 sequence (P0ADV1 25-185 E39V/M47A/Q62L/R76A)": "as the sequence (P0ADV1 25-185 E39V/M47A/R76A) above, with Q38L counted along it", "assay": "biochemical", "format": "binding, E. coli", "procedure": "as §4, §2, §5"}, "LptAmQ62L, D33A": {"target": "T6, LptAmQ62L, D33A (Escherichia coli, UniProt P0ADV1, D33A/Q62L)", "T6 construct": "His6-GB1 (N, cleaved yes); made in house; host or cells: E. coli BL21 (DE3)", "T6 sequence (P0ADV1 28-159 D33A/Q62L)": "as the sequence (P0ADV1 28-159 Q62L) above, with D6A counted along it", "assay": "FP direct binding assay", "parameters": "species or system E. coli", "protocol": "as §6"}},
  "note": "Where a SMILES comes first, the peptide text is derived from it. Bridges are numbered along the chain shown (N, C = ends). [ ]: non-standard residue; d: D form. The star is where a group is joined. X1 = CC1(CCCCS(=O)(=O)O)C(/C=C/C=C/C=C2/N(CCCS(=O)(=O)O)c3ccc(S(=O)(=O)O)cc3C2(C)C)=[N+](CCCCCC(=O)NCc2cn(CCOCCOCCOCCOCCC(=O)*)nn2)c2ccc(S(=O)(=O)[O-])cc21; Hyp = O=C(O)[C@@H]1C[C@@H](O)CN1; Pen = CC(C)(S)[C@H](N)C(=O)O; dDab = NCC[C@@H](N)C(=O)O; Dab = NCC[C@H](N)C(=O)O",
  "data": [
    {"smiles": "CC[C@H](C)[C@H](NC(=O)[C@@H]1C[C@@H](O)CN1C(=O)[C@@H](N)C(C)C)C(=O)N[C@H](C(=O)N[C@@H](Cc1ccc(O)cc1)C(=O)N[C@@H]1C(=O)N[C@@H](CC(N)=O)C(=O)N[C@@H](CCCNC(=N)N)C(=O)N[C@@H](CCN)C(=O)N[C@@H](CCCCNC(=O)CCOCCOCCOCCOCCn2cc(CNC(=O)CCCCC[N+]3=C(/C=C/C=C/C=C4/N(CCCS(=O)(=O)O)c5ccc(S(=O)(=O)O)cc5C4(C)C)C(C)(CCCCS(=O)(=O)O)c4cc(S(=O)(=O)[O-])ccc43)nn2)C(=O)N[C@H](CCN)C(=O)N[C@@H](CCCCN)C(=O)N[C@H](C(=O)N[C@@H](CCN)C(=O)N[C@@H](CCCNC(=N)N)C(=O)N[C@@H](Cc2ccc(O)cc2)C(=O)O)CSSC1(C)C)[C@@H](C)O", "note": "(stereo partly drawn) [6-FL] (H-V[Hyp]ITY[Pen]NR[Dab]K(X1)[dDab]KC[Dab]RY-OH; disulfide 6-13)", "values": [
      {"measurement": "Kd", "setting": "mLptA [1]", "value": "453 ± 29.3", "unit": "nM"},
      {"measurement": "Kd", "setting": "LptAm [2]", "value": "3.7 ± 0.9", "unit": "nM"},
      {"measurement": "Kd", "setting": "LptAmQ62L [3]", "value": "242 ± 45.1", "unit": "nM"},
      {"measurement": "Kd", "setting": "LptAmQ62L [4]", "value": "73.3 ± 21.3", "unit": "nM"},
      {"measurement": "Kd", "setting": "LptAm [5]", "value": "6.9 ± 1.7", "unit": "nM"},
      {"measurement": "Kd", "setting": "LptAmD33A", "value": "13.8 ± 8.2", "unit": "nM"},
      {"measurement": "Kd", "setting": "mLptA [6]", "value": "968 ± 191", "unit": "nM"},
      {"measurement": "Kd", "setting": "mLptAQ62L", "value": "8140 ± 1180", "unit": "nM"},
      {"measurement": "Kd", "setting": "LptAmQ62L, D33A", "value": "82.4 ± 10.3", "unit": "nM"}
    ]}
  ]
}
